The results in this text go back to patent US7435837B2, “Dihydrobenzofuranyl alkanamine derivatives and methods for using same” (Wyeth, priority 2003, dated 2008).

This assay deals with T1, human 5-hydroxytryptamine-2C (h5-HT2C) receptor (Homo sapiens, UniProt P28335).
T1 construct: expressed in transfected cells; host or cells: CHO (Chinese Hamster Ovary) cells; membranes
T1 sequence (P28335 33-458): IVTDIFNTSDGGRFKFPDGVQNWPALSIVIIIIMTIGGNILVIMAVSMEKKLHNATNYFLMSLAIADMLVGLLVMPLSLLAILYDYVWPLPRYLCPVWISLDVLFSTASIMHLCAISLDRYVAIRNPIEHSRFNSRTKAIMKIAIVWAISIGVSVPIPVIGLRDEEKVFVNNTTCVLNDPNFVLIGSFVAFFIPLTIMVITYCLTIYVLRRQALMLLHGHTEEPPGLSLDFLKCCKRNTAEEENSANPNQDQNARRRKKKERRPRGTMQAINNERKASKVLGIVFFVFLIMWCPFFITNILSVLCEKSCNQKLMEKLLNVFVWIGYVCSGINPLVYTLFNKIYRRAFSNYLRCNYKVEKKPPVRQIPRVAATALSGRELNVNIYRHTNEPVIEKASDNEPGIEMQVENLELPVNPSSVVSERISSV
As to the kind of experiment: [125I]DOI binding to membranes of CHO cells expressing the human 5-HT2C receptor. The conditions noted are these: [125I]DOI radioligand, CHO cell membranes, room temperature 60 min; read-out: 5-HT2C Affinity Ki.
A word on the Ki: it is a measure of affinity in units of concentration, obtained from inhibition or displacement. Take `Cc1cccc(C)c1-c1cccc2c1CC(CN)O2` (racemic) [Example 125, (±)-1-[4-(2,6-dimethylphenyl)-2,3-dihydro-1-benzofuran-2-yl]methanamine]: the inhibition constant Ki worked out at 276 nM. On to `NCC1Cc2cccc(Nc3ccccc3)c2O1` (racemic) [Example 173, (±)-N-[2-(aminomethyl)-2,3-dihydro-1-benzofuran-7-yl]-N-phenylamine], for which the Ki is 326 nM.

`Cc1ccc(Nc2cccc3c2OC(CN)C3)cc1` (racemic) [Example 174, (±)-N-[2-(aminomethyl)-2,3-dihydro-1-benzofuran-7-yl]-N-(4-methylphenyl)amine]: the Ki turned out to be 203 nM. For the compound `NCC1Cc2cccc(Nc3ccc(Cl)cc3)c2O1` (racemic) [Example 175, (±)-N-[2-(aminomethyl)-2,3-dihydro-1-benzofuran-7-yl]-N-(4-chlorophenyl)amine], the Ki was found to be 384 nM. On to `COc1ccc(Nc2cccc3c2OC(CN)C3)cc1` (racemic) [Example 176, (±)-N-[2-(aminomethyl)-2,3-dihydro-1-benzofuran-7-yl]-N-(4-methoxyphenyl)amine], for which the inhibition constant (Ki) worked out at 488 nM. In the case of `NCC1Cc2cccc(Nc3ccc(C(F)(F)F)cc3)c2O1` (racemic) [Example 177, (±)-N-[2-(aminomethyl)-2,3-dihydro-1-benzofuran-7-yl]-N-[4-(trifluoromethyl)phenyl]amine], the Ki amounted to 353 nM.

For `NCC1Cc2cccc(Nc3ccc(F)cc3)c2O1` (racemic) [Example 178, (±)-N-[2-(aminomethyl)-2,3-dihydro-1-benzofuran-7-yl]-N-(4-fluorophenyl)amine], the Ki came to 310 nM.

As for `NCC1Cc2cccc(Nc3ccc(Cl)c(Cl)c3)c2O1` (racemic) [Example 179, (±)-N-[2-(aminomethyl)-2,3-dihydro-1-benzofuran-7-yl]-N-(3,4-dichlorophenyl)amine], the Ki worked out at 435 nM. Consider `Cc1ccc(Nc2cccc3c2OC(CN)C3)c(C)c1` (racemic) [Example 180, (±)-N-[2-(aminomethyl)-2,3-dihydro-1-benzofuran-7-yl]-N-(2,4-dimethylphenyl)amine], for which the inhibition constant (Ki) amounted to 290 nM. To `Cc1ccc(Nc2cccc3c2OC(CN)C3)cc1C` (racemic) [Example 181, (±)-N-[2-(aminomethyl)-2,3-dihydro-1-benzofuran-7-yl]-N-(3,4-dimethylphenyl)amine] belongs 146 nM. For the compound `Cc1cccc(Nc2cccc3c2OC(CN)C3)c1` (racemic) [Example 182, (±)-N-[2-(aminomethyl)-2,3-dihydro-1-benzofuran-7-yl]-N-(3-methylphenyl)amine], the inhibitory constant (Ki) amounted to 279 nM.

In the case of `NCC1Cc2cccc(Nc3cccc(F)c3)c2O1` (racemic) [Example 183, (±)-N-[2-(aminomethyl)-2,3-dihydro-1-benzofuran-7-yl]-N-(3-fluorophenyl)amine], the Ki is 178 nM. To `NCC1Cc2cccc(Nc3cccc(C(F)(F)F)c3)c2O1` (racemic) [Example 184, (±)-N-2-(aminomethyl)-N-[3-(trifluoromethyl)phenyl]-2,3-dihydro-1-benzofuran-7-amine] belongs 185 nM. For the compound `COc1ccc(Nc2cccc3c2OC(CN)C3)cc1C` (racemic) [Example 185, (±)-N-[2-(aminomethyl)-2,3-dihydro-1-benzofuran-7-yl]-N-(4-methoxy-3-methylphenyl)amine], the Ki was determined as 159 nM.

For the compound `NCC1Cc2cccc(Nc3cc(F)cc(F)c3)c2O1` (racemic) [Example 186, (±)-N-[2-(aminomethyl)-2,3-dihydro-1-benzofuran-7-yl]-N-(3,5-difluorophenyl)amine], the Ki was 171 nM. For `NCC1Cc2cccc(Nc3cccc(OC(F)(F)F)c3)c2O1` (racemic) [Example 187, (±)-N-[2-(aminomethyl)-2,3-dihydro-1-benzofuran-7-yl]-N-(3-trifluoromethoxy)phenyl]amine], the inhibition constant Ki turned out to be 247 nM. Consider `Cc1ccc(Nc2cccc3c2OC(CN)C3)cc1Cl` (racemic) [Example 188, (±)-N-[2-(aminomethyl)-2,3-dihydro-1-benzofuran-7-yl]-N-(3-chloro-4-methylphenyl)amine], for which the Ki is 579 nM.

Consider `NCC1Cc2cccc(Nc3cc(Cl)cc(Cl)c3)c2O1` (racemic) [Example 189, (±)-N-[2-(aminomethyl)-2,3-dihydro-1-benzofuran-7-yl]-N-(3,5-dichlorophenyl)amine], for which the Ki was found to be 363 nM. For the compound `NCC1Cc2cccc(Nc3cccc(Cl)c3)c2O1` (racemic) [Example 190, (±)-N-[2-(aminomethyl)-2,3-dihydro-1-benzofuran-7-yl]-N-(3-chlorophenyl)amine], the inhibitory constant (Ki) was 186 nM.

With `Cc1cc(C)cc(Nc2cccc3c2OC(CN)C3)c1` (racemic) [Example 192, (±)-N-[2-(aminomethyl)-2,3-dihydro-1-benzofuran-7-yl]-N-(3,5-dimethylphenyl)amine], the inhibition constant Ki is 142 nM.

Turning to `NCC1Cc2cccc(Nc3ccc(F)c(Cl)c3)c2O1` (racemic) [Example 193, (±)-N-[2-(aminomethyl)-2,3-dihydro-1-benzofuran-7-yl]-N-(3-chloro-4-fluorophenyl)amine], the Ki turned out to be 246 nM. Regarding `NCC1Cc2cccc(Nc3ccccc3F)c2O1` (racemic) [Example 194, (±)-N-[2-(aminomethyl)-2,3-dihydro-1-benzofuran-7-yl]-N-(2-fluorophenyl)amine], the Ki is 127 nM. With `NCC1Cc2cc(F)cc(-c3cccc(F)c3)c2O1` (racemic) [Example 196, (±)-{[5-fluoro-7-(3-fluorophenyl)-2,3-dihydro-1-benzofuran-2-yl]methyl}amine], the Ki was found to be 108 nM. On to `COc1cccc(-c2cc(F)cc3c2OC(CN)C3)c1` (racemic) [Example 197, (±)-{[5-fluoro-7-(3-methoxyphenyl)-2,3-dihydro-1-benzofuran-2-yl]methyl}amine], for which the inhibitory constant (Ki) came to 63 nM. Regarding `NCC1Cc2cc(F)cc(-c3cncnc3)c2O1` (racemic) [Example 210, (±)-[(5-fluoro-7-pyrimidin-5-yl-2,3-dihydro-1-benzofuran-2-yl)methyl]amine], the inhibitory constant (Ki) was 36 nM. To `NCC1Cc2cc(Cl)cc(-c3ccc(F)c(Cl)c3)c2O1` (racemic) [Example 259, (±)-{[5-chloro-7-(3-chloro-4-fluorophenyl)-2,3-dihydro-1-benzofuran-2-yl]methyl}amine] belongs 69 nM; to `CCc1cc2c(c(-c3ccccc3C)c1)OC(CN)C2` (racemic) [Example 305, (±)-{[5-ethyl-7-(2-methylphenyl)-2,3-dihydro-1-benzofuran-2-yl]methyl}amine], 1.1 nM. As for `COc1ccccc1-c1cc(C(F)(F)F)cc2c1OC(CN)C2` (racemic) [Example 316, (±)-{[5-(trifluoromethyl)-7-(2-methoxyphenyl)-2,3-dihydro-1-benzofuran-2-yl]methyl}amine], the Ki was 64 nM.

As for `NCC1Cc2cc(C(F)(F)F)cc(-c3ccccc3C(F)(F)F)c2O1` (racemic) [Example 317, (±)-{[5-(trifluoromethyl)-7-(2-(trifluoromethyl)phenyl)-2,3-dihydro-1-benzofuran-2-yl]methyl}amine], the Ki was found to be 84 nM. To `Cc1cccc(-c2cc(C(F)(F)F)cc3c2OC(CN)C3)c1` (racemic) [Example 318, (±)-{[5-(trifluoromethyl)-7-(3-methylphenyl)-2,3-dihydro-1-benzofuran-2-yl]methyl}amine] belongs 98 nM; to `NCC1Cc2cc(C(F)(F)F)cc(-c3cccc(F)c3)c2O1` (racemic) [Example 319, (±)-{[5-(trifluoromethyl)-7-(3-fluorophenyl)-2,3-dihydro-1-benzofuran-2-yl]methyl}amine], 83 nM.

As for `NCC1Cc2cc(C(F)(F)F)cc(-c3cccc(Cl)c3)c2O1` (racemic) [Example 320, (±)-{[5-(trifluoromethyl)-7-(3-chlorophenyl)-2,3-dihydro-1-benzofuran-2-yl]methyl}amine], the inhibitory constant (Ki) turned out to be 107 nM.

Turning to `COc1cccc(-c2cc(C(F)(F)F)cc3c2OC(CN)C3)c1` (racemic) [Example 321, (±)-{[5-(trifluoromethyl)-7-(3-methoxyphenyl)-2,3-dihydro-1-benzofuran-2-yl]methyl}amine], the inhibition constant (Ki) is 59 nM. `NCC1Cc2cc(C(F)(F)F)cc(-c3cccc(C(F)(F)F)c3)c2O1` (racemic) [Example 322, (±)-{[5-(trifluoromethyl)-7-(3-(trifluoromethyl)phenyl)-2,3-dihydro-1-benzofuran-2-yl]methyl}amine]: the inhibitory constant (Ki) is 427 nM. Turning to `Cc1ccc(-c2cc(C(F)(F)F)cc3c2OC(CN)C3)cc1` (racemic) [Example 323, (±)-{[5-(trifluoromethyl)-7-(4-methylphenyl)-2,3-dihydro-1-benzofuran-2-yl]methyl}amine], the Ki was found to be 161 nM. As for `NCC1Cc2cc(C(F)(F)F)cc(-c3ccc(F)cc3)c2O1` (racemic) [Example 324, (±)-{[5-(trifluoromethyl)-7-(4-fluorophenyl)-2,3-dihydro-1-benzofuran-2-yl]methyl}amine], the Ki is 60 nM.

`NCC1Cc2cc(C(F)(F)F)cc(-c3ccc(Cl)cc3)c2O1` (racemic) [Example 325, (±)-{[5-(trifluoromethyl)-7-(4-chlorophenyl)-2,3-dihydro-1-benzofuran-2-yl]methyl}amine]: the Ki is 320 nM.
